Measurements as given in paper PMC10817943 (Nature Communications, 2024).
Values after ≈ are worked out from the molar mass of the structure shown. Values joined by “and” are separate entries in the source; they are usually repeats but may differ in a detail not shown here. Equal entries are not always repeated. Where two headings read alike, the source gives them in different places. Numbered stars: 1 amine (or outer) side, 2 acyl side, 3 side chain; on linkers, the order of the positions; unused ones are H or OH. Bridge positions count the residues as written; N and C are the ends. Square brackets hold non-standard residues; d marks the D form. Peptide text beside a SMILES is read from it. * marks the point of attachment. ξ: configuration not given here. X1 = CCC1CC(C(=O)[*:2])N([*:1])C1; Butanoyl(2-oxo) = CCC(=O)C(=O)*; ξPro(4ξ-Me) = CC1CNC(C(=O)O)C1; NMeT = CN[CH](C(=O)O)[CH](C)O; NMeL = CN[CH](CC(C)C)C(=O)O; hLeu = CC(C)CC[CH](N)C(=O)O; NMeV = CN[CH](C(=O)O)C(C)C

Legend:
[1] = target: M. smegmatis DnaN (msDnaN) (Mycolicibacterium smegmatis, UniProt A0QND6); assay: biochemical; type: binding; conditions: for Response (Average): MST source data, runs #1-#3, listed as MP A
Chain of M. smegmatis DnaN (msDnaN) (A0QND6 whole entry, looked up): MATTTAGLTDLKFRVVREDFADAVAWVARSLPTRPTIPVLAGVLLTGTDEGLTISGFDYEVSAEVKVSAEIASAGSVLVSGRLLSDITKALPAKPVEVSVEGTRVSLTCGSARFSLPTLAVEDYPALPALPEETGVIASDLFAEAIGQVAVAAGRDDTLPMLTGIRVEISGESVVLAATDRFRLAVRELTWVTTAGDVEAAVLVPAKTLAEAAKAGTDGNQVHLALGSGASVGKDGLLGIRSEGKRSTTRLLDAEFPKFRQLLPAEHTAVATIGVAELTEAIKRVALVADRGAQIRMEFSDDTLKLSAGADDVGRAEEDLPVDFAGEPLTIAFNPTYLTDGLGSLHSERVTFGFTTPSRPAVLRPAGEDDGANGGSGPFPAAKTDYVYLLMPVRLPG

[2] = test system: M. smegmatis (Msmeg) strain mc^2155; assay: microbe, parasite or virus in culture; type: cell-based; conditions: Mycolicibacterium smegmatis, MC^2155, read-out: MIC M. smegmatis mc^2155
[3] = test system: M. smegmatis mc^2155 GM^R; assay: microbe, parasite or virus in culture; type: cell-based; conditions: Mycolicibacterium smegmatis, MC^2155, read-out: MIC M. smegmatis mc^2155 GM^R
CHO-K1 cells = assay: cells; type: cell-based, Chinese hamster (Cricetulus griseus); conditions: Cricetulus griseus, CHO-K1, 120 h, read-out: IC50 CHO-K1
E. coli BW25113 = assay: microbe, parasite or virus in culture; type: cell-based; conditions: Escherichia coli, BW25113, read-out: MIC E. coli BW25113
S. aureus Newman = assay: microbe, parasite or virus in culture; type: cell-based; conditions: Staphylococcus aureus, read-out: MIC S. aureus Newman
[4] = test system: M. tuberculosis (Mtb) strain H37Rv; assay: microbe, parasite or virus in culture; type: cell-based, Mycobacterium tuberculosis
[5] = test system: M. tuberculosis (Mtb) strain H37Ra; assay: microbe, parasite or virus in culture; type: cell-based; conditions: Mycobacterium tuberculosis, read-out: MIC Mtb H37Ra
[6] = test system: M. smegmatis mc^2155 reporter strain harboring PradA-LUX; conditions: for luminescence induction: RadA reporter, ciprofloxacin 0.06 µg/mL, MPA 0.125 µg/mL
[7] = test system: M. marinum (Mm) strain M (ATCC BAA-535); assay: microbe, parasite or virus in culture; type: cell-based; conditions: Mycobacterium marinum, ATCCBAA535, read-out: MIC M. marinum strain M
C. freundii DSM 30039 = assay: microbe, parasite or virus in culture; type: cell-based; conditions: Citrobacter freundii, DSM30039, read-out: MIC C. freundii DSM 30039
B. subtilis DSM 10 = assay: microbe, parasite or virus in culture; type: cell-based; conditions: Bacillus subtilis, DSM10, read-out: MIC B. subtilis DSM 10
A. baumannii DSM 30008 = assay: microbe, parasite or virus in culture; type: cell-based; conditions: Acinetobacter baumannii, DSM30008, read-out: MIC A. baumannii DSM 30008
[8] = test system: M. tuberculosis (Mtb) strain H37Rv; conditions: cited from earlier work
[9] = test system: M. smegmatis mc^2155 reporter strain harboring PrecA-LUX; conditions: for luminescence induction: RecA reporter, ciprofloxacin 0.06 µg/mL, MPA 0.125 µg/mL

Structure (SMILES): CCC(=O)C(=O)N(C)C(C(=O)N1CC(CC)CC1C(=O)N(C)C1C(=O)NC(CC(C)C)C(=O)N2CC(C)CC2C(=O)NC(CCC(C)C)C(=O)N(C)C(C(C)C)C(=O)N2CCCC2C(=O)N(C)C(CC(C)C)C(=O)NCC(=O)OC1C)C(C)C (centres unmarked) [Mycoplanecin A] ({Butanoyl(2-oxo)}-[NMeV][X1][NMeT]L[ξPro(4ξ-Me)][hLeu][NMeV]P[NMeL]G; ester 3-C; configuration not given here)
- Kd [1]: 95.4 ± 58 nM
- Response (Average) ([1]; Dose 1.22E-08 (unit not given)): 901.8 and 900.043 and 900.321
- Response (Average) ([1]; Dose 1.25E-05 (unit not given)): 916.3 and 910.333 and 908.121
- Response (Average) ([1]; Dose 1.53E-09 (unit not given)): 900.5 and 901.137 and 897.639
- Response (Average) ([1]; Dose 1.56E-06 (unit not given)): 912 and 910.977 and 908.315
- Response (Average) ([1]; Dose 1.95E-07 (unit not given)): 911.4 and 903.026 and 901.872
- Response (Average) ([1]; Dose 2.44E-08 (unit not given)): 900.5 and 898.574 and 901.47
- Response (Average) ([1]; Dose 2.50E-05 (unit not given)): 912.5 and 912.466 and 910.671
- Response (Average) ([1]; Dose 3.05E-09 (unit not given)): 907.2 and 900.824 and 900.843
- Response (Average) ([1]; Dose 3.13E-06 (unit not given)): 913.2 and 908.487 and 910.005
- Response (Average) ([1]; Dose 3.91E-07 (unit not given)): 910.5 and 900.599 and 903.733
- Response (Average) ([1]; Dose 4.88E-08 (unit not given)): 904.4 and 896.349 and 895.973
- Response (Average) ([1]; Dose 5.00E-05 (unit not given)): 912 and 911.551 and 911.531
- Response (Average) ([1]; Dose 6.10E-09 (unit not given)): 899.2 and 900.167 and 896.514
- Response (Average) ([1]; Dose 6.25E-06 (unit not given)): 912 and 910.662 and 909.72
- Response (Average) ([1]; Dose 7.81E-07 (unit not given)): 913.8 and 908.369 and 909.33
- Response (Average) ([1]; Dose 9.77E-08 (unit not given)): 902.5 and 896.716 and 900.856
- MIC [2]: 0.0625 µg/mL (≈ 0.0528 µM)
- MIC [3]: 4 µg/mL (≈ 3.38 µM)
- IC50 (CHO-K1 cells): > 37 µg/mL
- MIC (E. coli BW25113): > 64 µg/mL
- MIC (S. aureus Newman): > 64 µg/mL
- lower MIC against Mtb H37Rv than initially reported [4]: four-fold
- MIC ([4]; Mycobacterium tuberculosis, H37RV, read-out: MIC Mtb H37Rv): 0.102 µg/mL (≈ 0.0862 µM)
- MIC [5]: 0.03 µg/mL (≈ 0.0253 µM)
- induction of DNA repair through RadA (luminescence) ([6]; 2x MIC, listed as MP A): Strong induction of luminescence
- luminescence induction ([6]; elapsed time 0:00:00): 121 RLU
- luminescence induction ([6]; elapsed time 3:00:00): 1545 RLU
- luminescence induction ([6]; elapsed time 6:00:00): 2517 RLU
- luminescence induction ([6]; elapsed time 9:00:00): 2232 RLU
- luminescence induction ([6]; elapsed time 12:00:00): 2473 RLU
- luminescence induction ([6]; elapsed time 15:00:00): 2636 RLU
- luminescence induction ([6]; elapsed time 18:00:00): 2684 RLU
- luminescence induction ([6]; elapsed time 21:00:00): 2416 RLU
- luminescence induction ([6]; elapsed time 24:00:00): 2295 RLU
- luminescence induction ([6]; elapsed time 27:00:00): 2095 RLU
- luminescence induction ([6]; elapsed time 30:00:00): 2147 RLU
- luminescence induction ([6]; elapsed time 33:00:00): 2090 RLU
- luminescence induction ([6]; elapsed time 36:00:00): 2617 RLU
- luminescence induction ([6]; elapsed time 39:00:00): 3126 RLU
- luminescence induction ([6]; elapsed time 42:00:00): 4043 RLU
- luminescence induction ([6]; elapsed time 45:00:00): 5111 RLU
- luminescence induction ([6]; elapsed time 48:00:00): 7463 RLU
- luminescence induction ([6]; elapsed time 51:00:00): 8233 RLU
- luminescence induction ([6]; elapsed time 54:00:00): 11519 RLU
- luminescence induction ([6]; elapsed time 57:00:00): 17058 RLU
- luminescence induction ([6]; elapsed time 60:00:00): 25987 RLU
- luminescence induction ([6]; elapsed time 63:00:00): 36814 RLU
- luminescence induction ([6]; elapsed time 66:00:00): 80633 RLU
- luminescence induction ([6]; elapsed time 69:00:00): 73655 RLU
- luminescence induction ([6]; elapsed time 72:00:00): 45431 RLU
- luminescence induction ([6]; elapsed time 75:00:00): 26035 RLU
- luminescence induction ([6]; elapsed time 78:00:00): 15293 RLU
- luminescence induction ([6]; elapsed time 81:00:00): 10478 RLU
- luminescence induction ([6]; elapsed time 84:00:00): 7153 RLU
- luminescence induction ([6]; elapsed time 87:00:00): 4415 RLU
- MIC [7]: 0.5 µg/mL (≈ 0.422 µM)
- MIC (C. freundii DSM 30039): > 64 µg/mL
- MIC (B. subtilis DSM 10): > 64 µg/mL
- MIC (A. baumannii DSM 30008): > 64 µg/mL
- MIC against Mtb H37Rv initially reported [8]: 0.39 µg/mL (≈ 0.33 µM)
- induction of SOS response through RecA (luminescence) ([9]; 2x MIC, listed as MP A): Strong induction of luminescence
- luminescence induction ([9]; elapsed time 0:00:00): 1234 RLU
- luminescence induction ([9]; elapsed time 3:00:00): 8420 RLU
- luminescence induction ([9]; elapsed time 6:00:00): 19572 RLU
- luminescence induction ([9]; elapsed time 9:00:00): 19402 RLU
- luminescence induction ([9]; elapsed time 12:00:00): 19729 RLU
- luminescence induction ([9]; elapsed time 15:00:00): 23383 RLU
- luminescence induction ([9]; elapsed time 18:00:00): 24012 RLU
- luminescence induction ([9]; elapsed time 21:00:00): 23254 RLU
- luminescence induction ([9]; elapsed time 24:00:00): 21764 RLU
- luminescence induction ([9]; elapsed time 27:00:00): 21831 RLU
- luminescence induction ([9]; elapsed time 30:00:00): 22602 RLU
- luminescence induction ([9]; elapsed time 33:00:00): 24786 RLU
- luminescence induction ([9]; elapsed time 36:00:00): 30979 RLU
- luminescence induction ([9]; elapsed time 39:00:00): 43998 RLU
- luminescence induction ([9]; elapsed time 42:00:00): 72104 RLU
- luminescence induction ([9]; elapsed time 45:00:00): 126348 RLU
- luminescence induction ([9]; elapsed time 48:00:00): 167800 RLU
- luminescence induction ([9]; elapsed time 51:00:00): 276102 RLU
- luminescence induction ([9]; elapsed time 54:00:00): 398120 RLU
- luminescence induction ([9]; elapsed time 57:00:00): 382129 RLU
- luminescence induction ([9]; elapsed time 60:00:00): 236913 RLU
- luminescence induction ([9]; elapsed time 63:00:00): 123029 RLU
- luminescence induction ([9]; elapsed time 66:00:00): 65825 RLU
- luminescence induction ([9]; elapsed time 69:00:00): 39152 RLU
- luminescence induction ([9]; elapsed time 72:00:00): 26573 RLU
- luminescence induction ([9]; elapsed time 75:00:00): 20127 RLU
- luminescence induction ([9]; elapsed time 78:00:00): 16583 RLU
- luminescence induction ([9]; elapsed time 81:00:00): 14319 RLU
- luminescence induction ([9]; elapsed time 84:00:00): 12316 RLU
- luminescence induction ([9]; elapsed time 87:00:00): 11375 RLU
